Values after ≈ are worked out from the molar mass of the structure shown. Some results are limits rather than exact numbers.

In data set [1] the test system is Staphylococcus aureus. Briefly: Antibacterial activity against Staphylococcus aureus ATCC 4163 after 18 hrs by microdilution method. It is filed as functional. The settings on record: ATCC 4163, 18 h.
The test system of data set [2] is Staphylococcus aureus. Briefly: Antibacterial activity against Staphylococcus aureus ATCC 25923 after 18 hrs by microdilution method. The settings on record: ATCC 25923, 18 h. It is filed as functional. Background: In broth dilution the organism is exposed to a series of concentrations in liquid medium.
For data set [3], the system named is Staphylococcus aureus. Kind of data set: Antibacterial activity against Staphylococcus aureus ATCC 6538 after 18 hrs by microdilution method. It is filed as functional. The settings on record: ATCC 6538, 18 h.
Data set [4] relates to Staphylococcus epidermidis. Briefly: Antibacterial activity against Staphylococcus epidermidis ATCC 12228 after 18 hrs by microdilution method. The class given is functional. The settings on record: ATCC 12228, 18 h.
In data set [5] the test system is Staphylococcus epidermidis. Kind of data set: Antibacterial activity against Staphylococcus epidermidis ATCC 49134 after 18 hrs by microdilution method. The class given is functional. The settings on record: ATCC 49134, 18 h.
In data set [6] the test system is Staphylococcus aureus. Briefly: Antibacterial activity against methicillin resistant Staphylococcus aureus isolate 1 after 18 hrs by microdilution method. It is filed as functional. The settings on record: isolate 1, 18 h.
The test system of data set [7] is Staphylococcus aureus. Kind of data set: Antibacterial activity against methicillin resistant Staphylococcus aureus isolate 2 after 18 hrs by microdilution method. The class given is functional. The settings on record: isolate 2, 18 h.
Data set [8] has as its system Staphylococcus aureus. Briefly: Antibacterial activity against methicillin resistant Staphylococcus aureus isolate 3 after 18 hrs by microdilution method. It is filed as functional. The settings on record: isolate 3, 18 h.
Data set [9] concerns Staphylococcus aureus. Briefly: Antibacterial activity against methicillin resistant Staphylococcus aureus isolate 4 after 18 hrs by microdilution method. The class given is functional. The settings on record: isolate 4, 18 h.
The subject of data set [10] is Staphylococcus aureus. Briefly: Antibacterial activity against methicillin resistant Staphylococcus aureus isolate 5 after 18 hrs by microdilution method. The class given is functional. The settings on record: isolate 5, 18 h.
The next data set concerns Escherichia coli. Kind of data set: Antibacterial activity against Escherichia coli ATCC 25922 after 18 hrs by microdilution method. The class given is functional. The settings on record: ATCC 25922, 18 h.
A further data set has as its system Pseudomonas aeruginosa. Briefly: Antibacterial activity against Pseudomonas aeruginosa NCTC 6749 after 18 hrs by microdilution method. The class given is functional. The settings on record: NCTC 6749, 18 h.
A short description of data set [11]: Solubility in water at pH 7 by UV-vis spectrophotometric analysis. It is filed as physicochemical.
A short description of data set [12]: Octanol-water partition coefficient, logP of the compound after 1 hr by UV-vis spectrophotometric analysis. The class given is physicochemical.

As to `COC(=O)[C@H](Cc1ccc(O)cc1)NCc1c2c(O)c3c(O)c(C)c4c(c3c1O)C(=O)[C@@](C)(O/C=C/[C@H](OC)[C@@H](C)[C@@H](OC(C)=O)[C@H](C)[C@H](O)[C@H](C)[C@@H](O)[C@@H](C)/C=C/C=C(/C)C(=O)N2)O4`, the MIC against Staphylococcus aureus [1] was 0.5 µg/mL (≈ 0.552 µM); in the data set with Staphylococcus aureus [2], 1 µg/mL (≈ 1.1 µM); in the data set on Staphylococcus aureus [3], 0.5 µg/mL (≈ 0.552 µM); in [4] it was 0.063 µg/mL (≈ 0.0696 µM); in data set [5], 0.125 µg/mL (≈ 0.138 µM); in the data set on Staphylococcus aureus [6], 0.5 µg/mL (≈ 0.552 µM). For the same molecule, the MIC against Staphylococcus aureus [7] was 1 µg/mL (≈ 1.1 µM); with Staphylococcus aureus [8] it was 1 µg/mL (≈ 1.1 µM); in the data set on Staphylococcus aureus [9], 0.5 µg/mL (≈ 0.552 µM); in the data set with Staphylococcus aureus [10], 0.5 µg/mL (≈ 0.552 µM); in the data set with Escherichia coli, more than 2 µg/mL; in the data set on Pseudomonas aeruginosa, more than 2 µg/mL. The concentration in solution in [11] (solubility) was 60 µg/mL (≈ 66.3 µM). Also, in data set [12], the logP at 1 h was 1.88.

Usually MIC stands for the lowest concentration that inhibits growth of the organism. The term solubility denotes the dissolved amount per volume that the medium holds. Read a high solubility as a readily soluble substance. The term logP denotes a log measure of how a compound divides between an organic and an aqueous phase.

The values are drawn from ChEMBL document CHEMBL3797048, “Structure-activity relationship studies of new rifamycins containing l-amino acid esters as inhibitors of bacterial RNA polymerases” (Eur J Med Chem, 2016).
